Laboratory results taken from US12484574B2, “Agent for promoting undifferentiation and cryoprotective agent using aprotic zwitterion” (JAPAN SCIENCE AND TECHNOLOGY AGENCY, priority 2019, dated 2025).

How the values were obtained:
Human iPS cells = assay: Undifferentiation-specific gene expression analysis (Nanog, Oct3/4 quantitative PCR); format: cell-based; details: no addition defined as 1
Description: Human iPS cells (RIKEN BRC) were reconstituted on SNL feeder cells (manufactured by Cell Biolabs, Inc.) and cultured in a CO2 incubator (5% CO2, 37° C., wet). On the next day, medium replacement was performed. The medium was replaced with a fresh one every day until 80% confluency. The cells that reached 80% confluency were recovered and subcultured. The subculture method for the cells is as follows: the cells were washed with DPBS(−) (no calcium, no magnesium, Thermo Fisher Scientific Inc.) and then treated with a CTK solution ((0.25% trypsin+1 mg/ml collagenase IV+1 mM CaCl2+20% KSR in DPBS (−))). The CTK solution was removed, and the cells were washed with DPBS(−) twice. […]
Subsequently, the expression levels of undifferentiation-specific genes Nanog and Oct3/4 were measured. […] The expression levels of the undifferentiation markers were quantified by the following method. […]
cDNA was synthesized from the FastLane lysate (RNA) through RT-PCR reaction using QuantiTect Reverse Transcription Kit (manufactured by Qiagen N.V.).
The quantitative PCR of OCT3/4 and NANOG was carried out under conditions of 95° C. for 30 seconds; (95° C. for 5 seconds; 60° C. for 30 seconds)×40; dissociation using SYBR Premix Ex Taq II (Tli RNaseH Plus) (manufactured by Takara Bio Inc.). […]

[1] = test system: Mouse fibroblasts C57BL/6-GFP; assay: Cell freezing, slow freezing method, viable cell count after thawing (Example 2); format: cell-based; details: 5% by weight in H2O; frozen to −80° C. at −1° C./min; FIG. 4
Description: CultureSure® cryopreservation solution (manufactured by FUJIFILM Wako Pure Chemical Corp.) (hereinafter, referred to as “FM”) • H2O • 5% by weight of DMSO/H2O • 5% by weight of OE2imC3C/H2O
The cells to be frozen (two types) were centrifugally recovered by trypsin treatment and diluted with Dulbecco's modified Eagle medium (DMEM), and each cell concentration was measured. The types and cell concentrations of the cells are as follows. • Human skin fibroblasts 5.0×10^5 cells/100 μl • Mouse fibroblasts C57BL/6-GFP 5.0×10^5 cells/100 μl
Subsequently, the cells of each type were dispensed at 1 ml/tube to 1.5 ml tubes, centrifuged, suspended in 100 μl each of the cryopreservation solutions described above, and frozen at a cooling temperature of −80° C. at a cooling rate of −1° C./min using a cell freezing container Mr. Frosty®.
1 ml of a medium was added to the cryopreservation vial for thawing, and a supernatant was removed by centrifugation. Subsequently, the cells obtained by centrifugation were resuspended in a medium, followed by the measurement of a viable cell count. Then, culture was started in a 6-well plate.

Wild-type zebrafish AB* = assay: Influence on development of zebrafish; format: in vivo; details: fertilized eggs cultured 1.5 to 24 hours
Description: All experiments were conducted based on a protocol approved by the animal experiment committee of Kanazawa University. Wild-type zebrafish AB* was raised at 28.5° C. with 14-hour light/10-hour dark cycles in a circulating water system. The medium used was E3 medium (5 mM NaCl, 0.17 mM KCl, 0.33 mM CaCl2, 0.33 mM MgSO4). The medium was supplemented with 1%, 2%, 5% or 10% DMSO or HLS (OE2imC3C). For each test group, eggs were fertilized and then cultured for 1.5 to 24 hours. The embryos thus cultured were washed with E3 medium twice and treated with 1-phenyl-2-thiourea (FUJIFILM Wako Pure Chemical Corp.) in order to prevent pigmentation. The embryos were stained with 0.6 mg/mL o-dianisidine (Tokyo Chemical Industry Co., Ltd.) for 15 minutes and fixed in 4% paraformaldehyde (FUJIFILM Wako Pure Chemical Corp.). The embryos were washed with phosphate-buffered saline containing 0.1% Tween (Sigma-Aldrich Co. LLC) twice. The survival rate was similar between DMSO and HLS (OE2imC3C) up to the 2% addition groups, whereas the survival rate differed largely therebetween in the 5% addition groups.

## COCCOCCn1cc[n+](CCCC(=O)[O-])c1 [OE2imC3C]
Human iPS cells; with SNL feeder cells, 0.4, 1.0 and 2.0% (w/v) in human iPS cell medium, FIG. 1
  relative expression levels of Nanog and Oct3/4: amplify the undifferentiation markers
Human iPS cells; without feeder cells, 1.0 and 2.0% (w/v) in SNL-conditioned medium, FIG. 2
  relative expression levels of Nanog and Oct3/4: amplify the undifferentiation markers
[1]
  viable cell count after thawing: larger viable cell count than that in the case of using conventional DMSO
Wild-type zebrafish AB*; Concentration 1 % (v/v for DMSO, w/v for HLS) in E3 medium
  Survival rate: 27/27
Wild-type zebrafish AB*; Concentration 2 % (v/v for DMSO, w/v for HLS) in E3 medium
  Survival rate: 27/27
Wild-type zebrafish AB*; Concentration 5 % (v/v for DMSO, w/v for HLS) in E3 medium
  Survival rate: 27/27
Wild-type zebrafish AB*; Concentration 10 % (v/v for DMSO, w/v for HLS) in E3 medium
  Survival rate: 0/27
